Data as given in US9624214B2, “Amino-substituted imidazo[1,2-a]pyridinecarboxamides and their use” (BAYER PHARMA AKTIENGESELLSCHAFT, priority 2012, dated 2017).
Structures can show the parent of a compound that is named as a salt.

target: T1, recombinant guanylate cyclase reporter cell line (Rattus norvegicus, UniProt P19686+P20595); assay: B-2. Action on recombinant guanylate cyclase reporter cell line; format: cell-based; conditions: MEC = minimal effective concentration; in some cases mean values from individual determinations
T1 construct: expressed in transfected cells
T1 sequence (P20595 1-619): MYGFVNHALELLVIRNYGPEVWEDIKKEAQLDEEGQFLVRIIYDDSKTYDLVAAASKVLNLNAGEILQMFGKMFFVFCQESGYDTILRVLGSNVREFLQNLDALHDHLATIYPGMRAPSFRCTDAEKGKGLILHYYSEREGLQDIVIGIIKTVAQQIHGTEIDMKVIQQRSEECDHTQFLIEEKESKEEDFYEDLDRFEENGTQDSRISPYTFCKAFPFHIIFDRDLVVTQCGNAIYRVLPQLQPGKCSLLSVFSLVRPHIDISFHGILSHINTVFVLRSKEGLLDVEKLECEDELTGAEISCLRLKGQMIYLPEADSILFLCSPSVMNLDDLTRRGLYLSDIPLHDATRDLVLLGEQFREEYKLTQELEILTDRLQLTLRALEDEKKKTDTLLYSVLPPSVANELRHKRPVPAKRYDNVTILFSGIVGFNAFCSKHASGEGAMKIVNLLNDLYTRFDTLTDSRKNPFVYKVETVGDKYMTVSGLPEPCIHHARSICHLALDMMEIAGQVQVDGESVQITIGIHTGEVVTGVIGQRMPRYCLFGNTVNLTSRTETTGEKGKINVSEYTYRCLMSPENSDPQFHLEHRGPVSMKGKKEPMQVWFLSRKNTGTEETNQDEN
T1 sequence (P19686 1-690): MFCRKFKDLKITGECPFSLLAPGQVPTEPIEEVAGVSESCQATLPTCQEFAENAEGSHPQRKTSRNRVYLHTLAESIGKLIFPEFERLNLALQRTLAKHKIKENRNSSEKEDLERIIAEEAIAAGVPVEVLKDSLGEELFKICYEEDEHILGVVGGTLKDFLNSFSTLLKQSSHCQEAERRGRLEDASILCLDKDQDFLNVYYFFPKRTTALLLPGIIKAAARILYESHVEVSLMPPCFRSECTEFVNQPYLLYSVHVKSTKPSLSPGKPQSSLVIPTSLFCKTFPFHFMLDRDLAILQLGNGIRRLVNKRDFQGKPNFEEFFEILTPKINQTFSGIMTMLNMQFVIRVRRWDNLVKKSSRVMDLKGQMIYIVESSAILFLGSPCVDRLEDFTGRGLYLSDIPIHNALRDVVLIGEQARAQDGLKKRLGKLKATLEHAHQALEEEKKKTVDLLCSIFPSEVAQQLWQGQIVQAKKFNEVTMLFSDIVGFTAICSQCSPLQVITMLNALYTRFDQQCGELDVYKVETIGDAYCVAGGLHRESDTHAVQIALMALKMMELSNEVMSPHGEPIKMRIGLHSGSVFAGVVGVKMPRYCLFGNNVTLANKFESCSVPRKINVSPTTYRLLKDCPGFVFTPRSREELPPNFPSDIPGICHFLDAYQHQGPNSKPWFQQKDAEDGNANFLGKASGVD
How it was run: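 Whole-cell reporter assay with recombinant guanylate cyclase; endpoint = minimal effective concentration.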

Row | MEC [µM] | SMILES
1 | 0.30 | Cc1nc2c(OCc3c(F)cccc3F)cccn2c1C(=O)NCC(N)CC(F)(F)F (single isomer, unassigned) [Example 126, ent-N-(2-Amino-4,4,4-trifluorobutyl)-8-[(2,6-difluorobenzyl)oxy]-2-methylimidazo[1,2-a]pyridine-3-carboxamide]
2 | 1.00 | Cc1nc2c(OCc3c(F)cccc3F)cccn2c1C(=O)NCC(N)CC(F)(F)F (single isomer, unassigned) [Example 127, ent-N-(2-Amino-4,4,4-trifluorobutyl)-8-[(2,6-difluorobenzyl)oxy]-2-methylimidazo[1,2-a]pyridine-3-carboxamide]
3 | 0.10 | Cc1cc(OCc2c(F)cccc2F)c2nc(C)c(C(=O)NCC(N)CC(F)(F)F)n2c1 (single isomer, unassigned) [Example 128, ent-N-(2-Amino-4,4,4-trifluorobutyl)-8-[(2,6-difluorobenzyl)oxy]-2,6-dimethylimidazo[1,2-a]-pyridine-3-carboxamide]
4 | 0.10 | Cc1cc(OCc2c(F)cccc2F)c2nc(C)c(C(=O)NCC(N)CC(F)(F)F)n2c1 (single isomer, unassigned) [Example 129, ent-N-(2-Amino-4,4,4-trifluorobutyl)-8-[(2,6-difluorobenzyl)oxy]-2,6-dimethylimidazo[1,2-a]-pyridine-3-carboxamide]
5 | 0.30 | Cc1nc2c(OCc3c(F)cccc3F)cccn2c1C(=O)NC(C)[C@H](C)N (single isomer, unassigned) [Example 174]
6 | 1.00 | Cc1nc2c(OCc3c(F)cccc3F)cccn2c1C(=O)NC(C)[C@H](C)N (single isomer, unassigned) [Example 175]
7 | 1.00 | Cc1nc2c(OCc3c(F)cccc3F)cccn2c1C(=O)NC(C)[C@@H](C)N (single isomer, unassigned) [Example 176]
8 | 1.00 | Cc1nc2c(OCc3c(F)cccc3F)cccn2c1C(=O)NC(C)[C@@H](C)N (single isomer, unassigned) [Example 177]
9 | 0.30 | Cc1nc2c(OCC3CCCCC3)cccn2c1C(=O)NC(CN)c1ccc(F)c(F)c1 (single isomer, unassigned) [Example 178, ent-N-[2-Amino-1-(3,4-difluorophenyl)ethyl]-8-(cyclohexylmethoxy)-2-methylimidazo[1,2-a]-pyridine-3-carboxamide]
10 | 1.00 | Cc1nc2c(OCC3CCCCC3)cccn2c1C(=O)NC(CN)c1ccc(F)c(F)c1 (single isomer, unassigned) [Example 179, ent-N-[2-Amino-1-(3,4-difluorophenyl)ethyl]-8-(cyclohexylmethoxy)-2-methylimidazo[1,2-a]-pyridine-3-carboxamide]
11 | 1.00 | Cc1nc2c(OCc3c(F)cccc3F)cccn2c1C(=O)NC12CNCCC1C2 (single isomer, unassigned) [Example 184, ent-N-(3-Azabicyclo[4.1.0]hept-1-yl)-8-[(2,6-difluorobenzyl)oxy]-2-methylimidazo[1,2-a]pyridine-3-carboxamide]
12 | 1.00 | Cc1nc2c(OCc3c(F)cccc3F)cccn2c1C(=O)NC12CNCCC1C2 (single isomer, unassigned) [Example 185, ent-N-(3-Azabicyclo[4.1.0]hept-1-yl)-8-[(2,6-difluorobenzyl)oxy]-2-methylimidazo[1,2-a]pyridine-3-carboxamide]
13 | 0.30 | Cc1nc2c(OCc3c(F)cccc3F)cc(Cl)cn2c1C(=O)NCC(N)CC(F)(F)F (single isomer, unassigned) [Example 192, ent-N-(2-Amino-4,4,4-trifluorobutyl)-6-chloro-8-[(2,6-difluorobenzyl)oxy]-2-methylimidazo[1,2-a]pyridine-3-carboxamide]
14 | 1.00 | Cc1nc2c(OCc3c(F)cccc3F)cc(Cl)cn2c1C(=O)NCC(N)CC(F)(F)F (single isomer, unassigned) [Example 193, ent-N-(2-Amino-4,4,4-trifluorobutyl)-6-chloro-8-[(2,6-difluorobenzyl)oxy]-2-methylimidazo[1,2-a]pyridine-3-carboxamide]
15 | 0.10 | CCC(C)(N)CNC(=O)c1c(C)nc2c(OCc3c(F)cccc3F)cc(Cl)cn12 (single isomer, unassigned) [Example 194, ent-N-(2-Amino-2-methylbutyl)-6-chloro-8-[(2,6-difluorobenzyl)oxy]-2-methylimidazo[1,2-a]-pyridine-3-carboxamide]
16 | 0.30 | CCC(C)(N)CNC(=O)c1c(C)nc2c(OCc3c(F)cccc3F)cc(Cl)cn12 (single isomer, unassigned) [Example 195, ent-N-(2-Amino-2-methylbutyl)-6-chloro-8-[(2,6-difluorobenzyl)oxy]-2-methylimidazo[1,2-a]-pyridine-3-carboxamide]
17 | 1.00 | COCC(C)(N)CNC(=O)c1c(C)nc2c(OCc3c(F)cccc3F)cc(Cl)cn12 (single isomer, unassigned) [Example 196, ent-N-(2-Amino-3-methoxy-2-methylpropyl)-6-chloro-8-[(2,6-difluorobenzyl)oxy]-2-methylimidazo[1,2-a]pyridine-3-carboxamide]
18 | 1.00 | COCC(C)(N)CNC(=O)c1c(C)nc2c(OCc3c(F)cccc3F)cc(Cl)cn12 (single isomer, unassigned) [Example 197, ent-N-(2-Amino-3-methoxy-2-methylpropyl)-6-chloro-8-[(2,6-difluorobenzyl)oxy]-2-methylimidazo[1,2-a]pyridine-3-carboxamide]
19 | 0.30 | COCC(C)(N)CNC(=O)c1c(C)nc2c(OCc3c(F)cccc3F)cc(C)cn12 (single isomer, unassigned) [Example 198, ent-N-(2-Amino-3-methoxy-2-methylpropyl)-8-[(2,6-difluorobenzyl)oxy]-2,6-dimethylimidazo-[1,2-a]pyridine-3-carboxamide]
20 | 0.30 | COCC(C)(N)CNC(=O)c1c(C)nc2c(OCc3c(F)cccc3F)cc(C)cn12 (single isomer, unassigned) [Example 199, ent-N-(2-Amino-3-methoxy-2-methylpropyl)-8-[(2,6-difluorobenzyl)oxy]-2,6-dimethylimidazo-[1,2-a]pyridine-3-carboxamide]
21 | 0.04 | CC[C@](C)(N)CNC(=O)c1c(C)nc2c(OCc3c(F)cccc3F)cc(C)cn12 (single isomer, unassigned) [Example 200]
22 | 0.10 | Cc1nc2c(OCc3c(F)cccc3F)cccn2c1C(=O)NCC(C)(N)CC(C)C (single isomer, unassigned) [Example 203, ent-N-(2-Amino-2,4-dimethylpentyl)-8-[(2,6-difluorobenzyl)oxy]-2-methylimidazo[1,2-a]pyridine-3-carboxamide]
23 | 1.00 | Cc1nc2c(OCc3c(F)cccc3F)cccn2c1C(=O)NCC(C)(N)CC(C)C (single isomer, unassigned) [Example 204, ent-N-(2-Amino-2,4-dimethylpentyl)-8-[(2,6-difluorobenzyl)oxy]-2-methylimidazo[1,2-a]pyridine-3-carboxamide]
24 | 0.30 | Cc1nc2c(OCc3c(F)cccc3F)cccn2c1C(=O)NCC(N)C(F)(F)F (single isomer, unassigned) [Example 208, ent-N-(2-Amino-3,3,3-trifluoropropyl)-8-[(2,6-difluorobenzyl)oxy]-2-methylimidazo[1,2-a]-pyridine-3-carboxamide]
25 | 0.30 | Cc1nc2c(OCc3c(F)cccc3F)cccn2c1C(=O)NCC(N)C(F)(F)F (single isomer, unassigned) [Example 209, ent-N-(2-Amino-3,3,3-trifluoropropyl)-8-[(2,6-difluorobenzyl)oxy]-2-methylimidazo[1,2-a]-pyridine-3-carboxamide]
26 | 0.30 | COCC(CN)NC(=O)c1c(C)nc2c(OCc3c(F)cccc3F)cc(C)cn12 (single isomer, unassigned) [Example 210, ent-N-(1-amino-3-methoxypropan-2-yl)-8-[(2,6-difluorobenzyl)oxy]-2,6-dimethylimidazo[1,2-a]-pyridine-3-carboxamide Trifluoroacetate]
